One experiment has as its target Src (Homo sapiens (Human), UniProt P12931). Put plainly: Enzyme selectivity test (ELISA), Src. The class given is biochemical. On the procedure: (§1) 1) Enzyme reaction substrate Poly(Glu, Tyr) 4:1 was diluted to 20 μg/mL with potassium-free PBS (10 mM sodium phosphate buffer, 150 mM NaCl, pH 7.2-7.4), and the microtiter plate was coated with 125 μL/well and placed at 37° C. for 12-16 hours of reaction. The liquid in the well was discard. The plate was washed three times with T-PBS (potassium-free PBS containing 0.1% Tween-20, 200 μL/well), 5 minutes each time. The ELISA plate was dried in an oven at 37° C. for 1 to 2 hours.
(§2) 2) Reaction buffer (50 mM HEPES pH 7.4, 50 mM MgCl2, 0.5 mM MnCl2, 0.2 mM Na3VO4, 1 mM DTT) diluted ATP solution (49 μL) was added to each well, 1 μL of the compound to be tested was added to each well, and then 50 μL of DDR2 kinase domain recombinant protein diluted in the reaction buffer was added to start the reaction. Two control wells without ATP were set in each experiment. The plate placed on a shaker (100 rpm) at 37° C. for 1 hour of reaction. The liquid in the well was discarded and the plate was washed three times with T-PBS.
(§3) 3) Antibody PY99 dilution solution (the antibody was diluted 1:500 with T-PBS containing BSA 5 mg/mL) was added at 100 μL/well, and shaken on a shaker at 37° C. for 0.5 hour of reaction. The liquid in the well was discarded and the plate was washed three times with T-PBS.
(§4) 4) Horseradish peroxidase labeled goat anti-murine secondary antibody dilution solution (the antibody is diluted 1:2000 with T-PBS containing BSA 5 mg/ml) was added at 100 μL/well, and shaken on a shaker at 37° C. for 0.5 hour of reaction. The liquid in the well was discarded and the plate was washed three times with T-PBS.
(§5) 5) 2 mg/ml of OPD color developing solution [diluted with 0.1 M citric acid-sodium citrate buffer (pH=5.4) containing 0.03% H2O2] was added at 100 μL/well and reacted for 1 to 10 minutes at 25° C. in the dark.
(§6) 6) 2M H2SO4 was added at 50 μL/well to stop the reaction, and a tunable wavelength microplate reader VERSAmax was used for reading at a wavelength of 490 nm.
(§7) The IC50 value was obtained by four-parameter regression using the software that came with the microplate reader. […]
(In general: In an ELISA, binding on a coated surface is turned into a signal by an enzyme label.)

The target in another experiment is ErbB2 (Homo sapiens (Human), UniProt P04626). Description: Enzyme selectivity test (ELISA), ErbB2. The experiment is classed as biochemical. On the procedure:
as §1, §2, §3, §4, §5, §6, §7

The test system of the next experiment is MRC-5 induced by TGF-β1. Put plainly: Activation of MRC-5 induced by TGF-β1. The class given is cell-based, human. Conditions: levels of Fibronectin, α-SMA, Collagen1-α1. On the procedure:
(§8) 1) Preparation of cell protein samples: the cell culture liquid was discarded, wash was performed once with PBS, and samples were collected by adding 1×SDS-Loading. after the samples were collected, they were placed in a metal bath at 100° C., and the samples were boiled for 10 minutes, and then the samples were stored at 4° C. for waiting for subsequent test.
(§9) 2) Gel preparation and sample loading: according to the molecular weight of the detected protein, different concentrations of separation gel were selected. after filling the 1× electrophoresis buffer, an equal volume of protein sample 4 μl and protein marker were added on the far left to right in sequence.
(§10) When the sample was in the concentrated gel, the voltage was set to 80 V; when the sample was electrophoresed to the separation gel, the voltage was increased to 120 V until the bromophenol blue was electrophoresed to reach the bottom of the gel, and the electrophoresis ended. […]
(§11) 8) Secondary antibodies: the film with the primary antibodies was rewarmed and incubated for about half an hour, and then the primary antibodies were recovered and the film was washed quickly with TBST solution 3 times, 10 minutes each time. […] The dilution ratio of the secondary antibody dedicated for DDR2 was 1:5000; The dilution ratio for the rest of the secondary antibodies were 1:8000, ready for use. […]

The subject of another experiment is kinases. Put plainly: Enzyme selectivity test, kinase panel overall. The experiment is classed as biochemical. The note with it: kinase panel of Table 5. An excerpt:
Except that the enzyme was different, other test methods and conditions were the same as the DDR2 enzyme activity test method in Effect example 1.

For experiment [1], the system named is pulmonary fibrosis induced by bleomycin in mice. Description: Hydroxyproline level of the whole lung. The experiment is classed as in vivo, mouse. The note with it: Effect example 5; compared with the BLM control group. On the procedure:
The change in hydroxyproline was determined by using a hydroxyproline detection kit, the steps are as follows:
1) The wet weights of the lung tissues in different groups were accurately weighed, and the lung tissues were placed in a 20 ml centrifuge tube after weighing.
2) 1 ml of hydrolysate was added to a 20 ml centrifuge tube and the tube was placed in boiling water at a constant temperature for 20 minutes.
3) The pH of the sample was adjusted to 6.0-8.0 with the reagents provided in the kit.
4) The reagents in the centrifuge tube were made up to 10 ml with distilled water, and mixed thoroughly.
5) 5 ml of hydrolysate was taken from the centrifuge tube, an appropriate amount of activated carbon was added, mixed thoroughly, centrifuged at 3500 rpm for 10 minutes in a centrifuge, and 1 ml of upper supernatant layer was taken for subsequent monitoring.
6) Reagents 1, 2, and 3 were added in order, mixed thoroughly, and then placed in a water bath at 60° C. for 15 minutes, then placed at room temperature for 5 minutes, and centrifuged in a centrifuge at 3500 rpm for 10 minutes. […] Distilled water was used as the zero setting and the absorbance value of each sample at 550 nm wavelength was determined.
7) A standard curve was drew based on the absorbance of the standard, and used as a basis to determine the hydroxyproline content of each sample. […]

The test system of the next experiment is DDR2. Put plainly: Phosphorylation level of DDR2 (Western Blot). The class given is cell-based, human. Conditions: MRC-5, TGF-β1 treatment. On the procedure: as §8, §9, §10, §11

Chain of ErbB2 (P04626 23-1255, species assumed): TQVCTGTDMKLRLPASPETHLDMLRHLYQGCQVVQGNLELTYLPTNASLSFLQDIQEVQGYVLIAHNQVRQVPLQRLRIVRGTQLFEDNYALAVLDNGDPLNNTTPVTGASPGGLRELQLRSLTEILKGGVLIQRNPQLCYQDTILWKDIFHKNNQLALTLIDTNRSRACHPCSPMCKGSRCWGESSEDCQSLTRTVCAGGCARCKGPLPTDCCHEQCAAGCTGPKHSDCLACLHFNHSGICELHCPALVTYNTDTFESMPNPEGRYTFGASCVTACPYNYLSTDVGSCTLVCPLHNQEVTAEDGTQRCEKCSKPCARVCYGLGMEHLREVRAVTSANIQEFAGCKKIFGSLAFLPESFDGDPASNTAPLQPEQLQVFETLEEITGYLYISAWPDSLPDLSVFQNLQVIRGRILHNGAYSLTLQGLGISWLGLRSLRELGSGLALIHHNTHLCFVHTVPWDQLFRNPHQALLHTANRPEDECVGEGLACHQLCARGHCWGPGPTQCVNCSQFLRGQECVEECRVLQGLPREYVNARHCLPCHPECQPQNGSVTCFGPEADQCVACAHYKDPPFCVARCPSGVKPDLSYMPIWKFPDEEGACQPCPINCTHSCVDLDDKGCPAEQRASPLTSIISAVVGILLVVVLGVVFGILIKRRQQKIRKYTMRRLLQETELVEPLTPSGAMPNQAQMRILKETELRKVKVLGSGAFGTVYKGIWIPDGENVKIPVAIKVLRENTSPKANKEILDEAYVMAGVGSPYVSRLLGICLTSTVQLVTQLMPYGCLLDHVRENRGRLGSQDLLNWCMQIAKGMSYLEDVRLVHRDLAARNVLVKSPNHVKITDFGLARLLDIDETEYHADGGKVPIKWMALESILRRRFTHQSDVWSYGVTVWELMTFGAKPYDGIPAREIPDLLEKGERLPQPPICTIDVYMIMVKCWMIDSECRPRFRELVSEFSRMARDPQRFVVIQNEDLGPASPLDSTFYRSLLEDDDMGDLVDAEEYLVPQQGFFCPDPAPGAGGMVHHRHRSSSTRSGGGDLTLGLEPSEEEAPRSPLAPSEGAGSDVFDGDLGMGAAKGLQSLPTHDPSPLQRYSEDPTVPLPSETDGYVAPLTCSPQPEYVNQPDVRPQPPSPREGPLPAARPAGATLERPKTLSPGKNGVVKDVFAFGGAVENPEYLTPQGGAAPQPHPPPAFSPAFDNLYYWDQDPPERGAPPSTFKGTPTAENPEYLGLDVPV
Chain of Src (P12931 whole entry, looked up, species assumed, the tested form may be a part): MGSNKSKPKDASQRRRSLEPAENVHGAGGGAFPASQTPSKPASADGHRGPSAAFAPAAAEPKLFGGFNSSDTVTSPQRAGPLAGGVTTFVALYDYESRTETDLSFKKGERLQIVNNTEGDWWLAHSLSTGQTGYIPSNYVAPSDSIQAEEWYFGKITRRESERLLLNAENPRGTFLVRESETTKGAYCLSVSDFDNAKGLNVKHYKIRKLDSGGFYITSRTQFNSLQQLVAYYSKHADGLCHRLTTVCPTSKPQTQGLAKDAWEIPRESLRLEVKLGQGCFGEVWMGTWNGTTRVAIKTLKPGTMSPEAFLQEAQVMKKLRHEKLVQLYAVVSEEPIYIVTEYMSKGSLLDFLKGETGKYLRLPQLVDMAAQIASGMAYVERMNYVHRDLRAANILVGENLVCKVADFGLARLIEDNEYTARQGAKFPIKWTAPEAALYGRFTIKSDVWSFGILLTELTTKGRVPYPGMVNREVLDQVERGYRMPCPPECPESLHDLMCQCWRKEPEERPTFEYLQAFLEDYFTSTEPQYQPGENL

In general, IC50 refers to the point on the concentration scale where inhibition reaches its midpoint. With `O=C(Nc1cccc(C(F)(F)F)c1)c1ccc(C2CC2)c(-c2ccc3nc(Nc4cnn(C5CC5)c4)ncc3c2)c1` [Compound S15, 4-cyclopropyl-3-(2-((1-cyclopropyl-1H-pyrazol-4-yl)amino)quinazolin-6-yl)-N-(3-(trifluoromethyl)phenyl)benzamide], the IC50 on Src is above 100 nM; against ErbB2, above 1000 nM. Also, the “activation of MRC-5 induced by TGF-β1” value with MRC-5 induced by TGF-β1 is listed as “inhibit the activation of MRC-5 induced by TGF-β1 in a dose-dependent manner”. Besides, the selectivity for kinases entry with kinases is listed as “good selectivity”. In addition, in experiment [1], the “hydroxyproline level of the whole lung” value is on record as “significantly reduce the level of hydroxyproline”. In the experiment with DDR2, the “phosphorylation level of DDR2” value is given as “effectively inhibit the phosphorylation level of DDR2”.
